Reference: ChEMBL document CHEMBL3856212, “Synthesis, anti-proliferative and genotoxicity studies of 6-chloro-5-(2-substituted-ethyl)-1,3-dihydro-2H-indol-2-ones and 6-chloro-5-(2-chloroethyl)-3-(alkyl/ary-2-ylidene)indolin-2-ones” (Eur J Med Chem, 2016)

Columns and labels:
Type in all cases: functional
[1] = Cytotoxicity against human 786-0 cells assessed as growth inhibition after 48 hrs by SRB assay; conditions: 786-0, 48 h
[2] = Cytotoxicity against human SF268 cells assessed as growth inhibition after 48 hrs by SRB assay; conditions: SF-268, 48 h
[3] = Cytotoxicity against human EKVX cells assessed as assessed as growth inhibition at 10^-5 M after 48 hrs by SRB assay relative to control; conditions: read-out: GI
[4] = Cytotoxicity against human Hs 578T cells assessed as assessed as growth inhibition at 10^-5 M after 48 hrs by SRB assay relative to control; conditions: read-out: GI
[5] = Cytotoxicity against human A498 cells assessed as growth inhibition after 48 hrs by SRB assay; conditions: A498, 48 h
[6] = Cytotoxicity against human PC3 cells assessed as growth inhibition after 48 hrs by SRB assay; conditions: PC-3, 48 h
[7] = Cytotoxicity against human MDA-MB-468 cells assessed as growth inhibition after 48 hrs by SRB assay; conditions: MDA-MB-468, 48 h
[8] = Cytotoxicity against human MDA-MB-468 cells assessed as assessed as growth inhibition at 10^-5 M after 48 hrs by SRB assay relative to control; conditions: MDA-MB-468, 48 h, read-out: GI
[9] = Cytotoxicity against human HCT15 cells assessed as growth inhibition after 48 hrs by SRB assay; conditions: HCT-15, 48 h
[10] = Cytotoxicity against human OVCAR3 cells assessed as assessed as growth inhibition at 10^-5 M after 48 hrs by SRB assay relative to control; conditions: OVCAR-3, 48 h, read-out: GI
[11] = Cytotoxicity against human Hs 578T cells assessed as growth inhibition after 48 hrs by SRB assay
[12] = Cytotoxicity against human ACHN cells assessed as growth inhibition after 48 hrs by SRB assay
[13] = Cytotoxicity against human A549 cells assessed as growth inhibition after 48 hrs by SRB assay; conditions: A549, 48 h
[14] = Cytotoxicity against human U251 cells assessed as growth inhibition after 48 hrs by SRB assay; conditions: U-251, 48 h
[15] = Cytotoxicity against human NCI-H226 cells assessed as assessed as growth inhibition at 10^-5 M after 48 hrs by SRB assay relative to control; conditions: NCI-H226, 48 h, read-out: GI
[16] = Cytotoxicity against human SF268 cells assessed as assessed as growth inhibition at 10^-5 M after 48 hrs by SRB assay relative to control; conditions: SF-268, 48 h, read-out: GI
[17] = Cytotoxicity against human OVCAR4 cells assessed as assessed as growth inhibition at 10^-5 M after 48 hrs by SRB assay relative to control; conditions: OVCAR-4, 48 h, read-out: GI
[18] = Cytotoxicity against human K562 cells assessed as growth inhibition after 48 hrs by SRB assay; conditions: K562, 48 h
[19] = Cytotoxicity against human NCI-H23 cells assessed as growth inhibition after 48 hrs by SRB assay; conditions: NCI-H23, 48 h
[20] = Cytotoxicity against human NCI-ADR-RES cells assessed as assessed as growth inhibition at 10^-5 M after 48 hrs by SRB assay relative to control; conditions: read-out: GI
[21] = Cytotoxicity against human UACC62 cells assessed as growth inhibition after 48 hrs by SRB assay; conditions: UACC-62, 48 h
[22] = Cytotoxicity against human SK-MEL-28 cells assessed as assessed as growth inhibition at 10^-5 M after 48 hrs by SRB assay relative to control; conditions: SK-MEL-28, 48 h, read-out: GI
[23] = Cytotoxicity against human SW620 cells assessed as growth inhibition after 48 hrs by SRB assay; conditions: SW-620, 48 h
[24] = Cytotoxicity against human SNB19 cells assessed as assessed as growth inhibition at 10^-5 M after 48 hrs by SRB assay relative to control; conditions: SNB-19, 48 h, read-out: GI
[25] = Cytotoxicity against human MCF7 cells assessed as growth inhibition after 48 hrs by SRB assay; conditions: MCF7, 48 h
[26] = Cytotoxicity against human OVCAR5 cells assessed as assessed as growth inhibition at 10^-5 M after 48 hrs by SRB assay relative to control; conditions: OVCAR-5, 48 h, read-out: GI
[27] = Cytotoxicity against human OVCAR4 cells assessed as growth inhibition after 48 hrs by SRB assay; conditions: OVCAR-4, 48 h
[28] = Cytotoxicity against human HCT116 cells assessed as growth inhibition after 48 hrs by SRB assay; conditions: HCT-116, 48 h
[29] = Cytotoxicity against human T47D cells assessed as assessed as growth inhibition at 10^-5 M after 48 hrs by SRB assay relative to control; conditions: read-out: GI
[30] = Cytotoxicity against human NCI-H322M cells assessed as assessed as growth inhibition at 10^-5 M after 48 hrs by SRB assay relative to control; conditions: read-out: GI
[31] = Cytotoxicity against human IGROV1 cells assessed as assessed as growth inhibition at 10^-5 M after 48 hrs by SRB assay relative to control; conditions: IGROV-1, 48 h, read-out: GI
[32] = Cytotoxicity against human SN12C cells assessed as growth inhibition after 48 hrs by SRB assay
[33] = Cytotoxicity against human M14 cells assessed as growth inhibition after 48 hrs by SRB assay; conditions: M14, 48 h
[34] = Cytotoxicity against human HL-60(TB) cells assessed as growth inhibition after 48 hrs by SRB assay; conditions: HL-60, 48 h
[35] = read-out: LD50 (the source's name)

Compound: O=C1Cc2cc(CCn3cncn3)c(Cl)cc2N1
- GI50 [1]: 1 µM
- TGI [1]: > 1 µM
- CC50 [1, 35]: > 1 µM
- GI50 [2]: 5.96 µM
- TGI [2]: > 1 µM
- CC50 [2, 35]: > 1 µM
- inhibition of growth at 10 µM [3]: 70.5%
- inhibition of growth at 10 µM [4]: 71.4%
- GI50 [5]: 3.25 µM
- TGI [5]: > 1 µM
- CC50 [5, 35]: > 1 µM
- GI50 [6]: 1 µM
- TGI [6]: > 1 µM
- CC50 [6, 35]: > 1 µM
- GI50 [7]: 2.18 µM
- TGI [7]: 9.54 µM
- CC50 [7, 35]: > 1 µM
- inhibition of growth at 10 µM [8]: 64.9%
- GI50 [9]: 9.59 µM
- TGI [9]: > 1 µM
- CC50 [9, 35]: > 1 µM
- inhibition of growth at 10 µM [10]: 28.3%
- GI50 [11]: 7.2 µM
- TGI [11]: > 1 µM
- CC50 [11, 35]: > 1 µM
- GI50 [12]: 1 µM
- TGI [12]: > 1 µM
- CC50 [12, 35]: > 1 µM
- GI50 [13]: 1.65 µM
- TGI [13]: > 1 µM
- CC50 [13, 35]: > 1 µM
- GI50 [14]: 1.45 µM
- TGI [14]: > 1 µM
- CC50 [14, 35]: > 1 µM
- inhibition of growth at 10 µM [15]: 25.2%
- inhibition of growth at 10 µM [16]: -10.2%
- inhibition of growth at 10 µM [17]: 13.2%
- GI50 [18]: 7.68 µM
- TGI [18]: > 1 µM
- CC50 [18, 35]: > 1 µM
- GI50 [19]: 1 µM
- TGI [19]: > 1 µM
- CC50 [19, 35]: > 1 µM
- inhibition of growth at 10 µM [20]: 47.1%
- GI50 [21]: 2.07 µM
- TGI [21]: > 1 µM
- CC50 [21, 35]: > 1 µM
- inhibition of growth at 10 µM [22]: 32.8%
- GI50 [23]: 6.6 µM
- TGI [23]: > 1 µM
- CC50 [23, 35]: > 1 µM
- inhibition of growth at 10 µM [24]: 25.6%
- GI50 [25]: 4.02 µM
- TGI [25]: > 1 µM
- CC50 [25, 35]: > 1 µM
- inhibition of growth at 10 µM [26]: 12.6%
- GI50 [27]: 1 µM
- TGI [27]: > 1 µM
- CC50 [27, 35]: > 1 µM
- GI50 [28]: 3.2 µM
- TGI [28]: > 1 µM
- CC50 [28, 35]: > 1 µM
- inhibition of growth at 10 µM [29]: 0.92%
- inhibition of growth at 10 µM [30]: 7.87%
- inhibition of growth at 10 µM [31]: 15.3%
- GI50 [32]: 1 µM
- TGI [32]: > 1 µM
- CC50 [32, 35]: > 1 µM
- GI50 [33]: 3.96 µM
- TGI [33]: > 1 µM
- CC50 [33, 35]: > 1 µM
- GI50 [34]: 1 µM
- TGI [34]: > 1 µM
- CC50 [34, 35]: > 1 µM
